Peptide text beside a SMILES is read from it. Bounds are passed on as bounds.

Assay [1] addresses T1, FPR1 (Homo sapiens, UniProt P21462).
T1 sequence (P21462 1-350): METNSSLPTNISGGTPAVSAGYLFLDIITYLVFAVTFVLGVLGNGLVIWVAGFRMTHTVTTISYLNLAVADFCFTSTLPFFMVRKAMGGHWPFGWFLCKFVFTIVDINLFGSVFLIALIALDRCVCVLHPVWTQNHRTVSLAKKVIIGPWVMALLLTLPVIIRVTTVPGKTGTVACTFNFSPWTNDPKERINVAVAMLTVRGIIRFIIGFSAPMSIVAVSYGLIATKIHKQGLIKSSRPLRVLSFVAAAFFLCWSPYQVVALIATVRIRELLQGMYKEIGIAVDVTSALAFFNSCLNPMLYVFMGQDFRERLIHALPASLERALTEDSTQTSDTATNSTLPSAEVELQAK
Description: Change in calcium activity by peptide, FPR1 activation effect. The assay is classed as cell-based. The conditions noted are these: calcium activity (Fura-2), graded per Table 3, read-out: EC50 for [Ca^2+] FPR1. The gist of the method:
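Cells plated at 3×10^5 per well the day before were loaded with Fura-2 for 1 h at 37 °C, then kept 30 min in the dark at room temperature. Peptide-evoked calcium changes were recorded on a FlexStation 3.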

The target of assay [2] is T2, FPR2 (Homo sapiens, UniProt P25090).
T2 construct: expressed in transfected cells; host or cells: RBL cells (RBL-FPR2)
T2 sequence (P25090 1-351): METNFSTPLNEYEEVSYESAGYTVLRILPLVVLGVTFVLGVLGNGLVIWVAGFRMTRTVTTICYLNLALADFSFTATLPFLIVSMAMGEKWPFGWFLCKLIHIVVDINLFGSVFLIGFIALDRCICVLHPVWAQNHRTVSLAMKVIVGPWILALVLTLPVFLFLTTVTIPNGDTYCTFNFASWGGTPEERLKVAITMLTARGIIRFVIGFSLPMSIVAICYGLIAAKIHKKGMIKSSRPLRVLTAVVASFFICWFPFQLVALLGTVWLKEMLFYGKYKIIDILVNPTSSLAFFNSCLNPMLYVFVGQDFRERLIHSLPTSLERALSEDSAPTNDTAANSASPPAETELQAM
Description: Change in calcium activity by peptide (Fura-2) in RBL cells overexpressing FPR2. Format: cell-based. The conditions noted are these: calcium activity (Fura-2), graded per Table 3, read-out: EC50 for [Ca^2+] FPR2. Put shortly: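 Rat basophilic leukemia cells overexpressing FPR2 loaded with Fura-2 (37 °C 1 h, then RT 30 min dark); peptides (0.5 mM stocks in water or 50% DMSO) diluted in HBSS + 20 mM HEPES and added on a plate reader, intracellular Ca2+ change recorded.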

Assay [3] concerns the target T3, FPR1 (UniProt P21462 1-350, limits assumed).
T3 sequence (looked up): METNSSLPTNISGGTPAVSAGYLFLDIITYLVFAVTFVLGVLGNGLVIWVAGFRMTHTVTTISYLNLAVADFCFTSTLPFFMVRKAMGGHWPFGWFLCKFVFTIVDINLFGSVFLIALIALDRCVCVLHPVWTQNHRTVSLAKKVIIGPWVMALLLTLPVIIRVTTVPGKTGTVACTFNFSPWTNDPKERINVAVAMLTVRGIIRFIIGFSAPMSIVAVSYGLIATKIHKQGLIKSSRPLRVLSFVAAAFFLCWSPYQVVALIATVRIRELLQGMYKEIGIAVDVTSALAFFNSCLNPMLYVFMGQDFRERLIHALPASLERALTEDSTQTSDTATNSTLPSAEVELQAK
Description: cell-based or functional assay.

With `CSCC[C@@H](NC(=O)[C@H](Cc1ccc(O)cc1)NC(=O)[C@H](Cc1c[nH]c2ccccc12)NC(=O)[C@H](Cc1ccc(O)cc1)NC(=O)[C@H](CCCNC(=N)N)NC(=O)[C@H](Cc1c[nH]c2ccccc12)NC(=O)[C@H](CCCNC(=N)N)NC(C)=O)C(N)=O` [Peptide 78] (HELM PEPTIDE1{[ac].R.W.R.Y.W.Y.[dM].[am]}$$$$V2.0), the EC50 is above 10 µM in assay [1] and below 0.01 µM in assay [2].
Regarding `CC[C@H](C)[C@H](N)C(=O)N[C@@H](CCCCN)C(=O)N[C@@H](Cc1ccccc1)C(=O)N[C@@H](CCCCN)C(=O)N[C@@H](Cc1ccc(O)cc1)C(=O)N[C@H](CCSC)C(N)=O` [Peptide 131] (HELM PEPTIDE1{I.K.F.K.Y.[dM].[am]}$$$$V2.0), the EC50 in assay [1] is above 10 µM; in assay [2] it was 0.011 to 0.1 µM.
In the case of `CCCC(=O)N1CCC[C@H]1C(=O)N[C@@H](CCSC)C(=O)N[C@@H](CCCCN)C(=O)N[C@@H](Cc1ccc(O)cc1)C(=O)N[C@@H](CCCCN)C(=O)N[C@H](C(=O)N[C@H](CCSC)C(N)=O)C(C)C` [Peptide 27] (HELM PEPTIDE1{[CCCC(=O)[*:2]].P.M.K.Y.K.V.[dM].[am]}$$$$V2.0), the EC50 was above 10 µM in assay [1] and below 0.01 µM in assay [2].
On to `CCCCCCCC(=O)N[C@H](C(=O)N[C@@H](CCCCN)C(=O)N[C@@H](Cc1ccc(O)cc1)C(=O)N[C@@H](CCCCN)C(=O)N1CCC[C@H]1C(=O)N[C@H](CCSC)C(N)=O)[C@@H](C)CC` [Peptide 145] (HELM PEPTIDE1{[CCCCCCCC(=O)[*:2]].I.K.Y.K.P.[dM].[am]}$$$$V2.0), for which the results for the EC50 in assay [1] and in assay [2] were above 10 µM and 0.011 to 0.1 µM, respectively.
The corresponding values for `CCCC(=O)N[C@@H](CCCCN)C(=O)N[C@@H](CCSC)C(=O)N[C@@H](CCCCN)C(=O)N[C@@H](Cc1ccc(O)cc1)C(=O)N[C@@H](CCCCN)C(=O)N1CCC[C@H]1C(=O)N[C@H](CCSC)C(N)=O` [Peptide 68] (HELM PEPTIDE1{[CCCC(=O)[*:2]].K.M.K.Y.K.P.[dM].[am]}$$$$V2.0) are above 10 µM and below 0.01 µM.
For the molecule `CSCC[C@@H](NC(=O)[C@@H](NC(=O)[C@H](CCCNC(=N)N)NC(=O)[C@H](Cc1ccc(O)cc1)NC(=O)[C@H](CCCNC(=N)N)NC(=O)[C@H](Cc1c[nH]c2ccccc12)NC(=O)[C@@H](N)CCCNC(=N)N)C(C)C)C(N)=O` [Peptide 29] (HELM PEPTIDE1{R.W.R.Y.R.V.[dM].[am]}$$$$V2.0), the EC50 was above 10 µM in assay [1] and below 0.01 µM in assay [2].
For `CSCC[C@H](NC(=O)[C@@H](N)CCCCN)C(=O)N[C@@H](CCCCN)C(=O)N[C@@H](Cc1ccc(O)cc1)C(=O)N[C@@H](CCCCN)C(=O)N[C@H](C(=O)N[C@H](CCSC)C(N)=O)C(C)C` [Peptide 9] (HELM PEPTIDE1{K.M.K.Y.K.V.[dM].[am]}$$$$V2.0), the EC50 in assay [1] is above 10 µM; in assay [2], 0.011 to 0.1 µM.
The matching figures for `CSCC[C@@H](NC(=O)[C@@H](NC(=O)[C@H](CCCCN)NC(=O)[C@H](Cc1ccc(O)cc1)NC(=O)[C@H](CCCCN)NC(=O)[C@@H]1CCCN1C(C)=O)C(C)C)C(N)=O` [Peptide 139] (HELM PEPTIDE1{[ac].P.K.Y.K.V.[dM].[am]}$$$$V2.0): above 10 µM and below 0.01 µM.
The corresponding values for `CSCC[C@@H](NC(=O)[C@H](Cc1ccc(O)cc1)NC(=O)[C@H](Cc1c[nH]c2ccccc12)NC(=O)[C@H](Cc1ccc(O)cc1)NC(=O)[C@H](CCCNC(=N)N)NC(=O)[C@H](Cc1c[nH]c2ccccc12)NC(=O)[C@@H](N)CCCNC(=N)N)C(N)=O` [Peptide 77] (HELM PEPTIDE1{R.W.R.Y.W.Y.[dM].[am]}$$$$V2.0) are above 10 µM and 0.011 to 0.1 µM.
Consider `CSCC[C@@H](NC(=O)[C@H](Cc1ccc(O)cc1)NC(=O)[C@H](Cc1ccc(O)cc1)NC(=O)[C@H](Cc1ccc(O)cc1)NC(=O)[C@H](CCCNC(=N)N)NC(=O)[C@H](Cc1c[nH]c2ccccc12)NC(C)=O)C(N)=O` [Peptide 124] (HELM PEPTIDE1{[ac].W.R.Y.Y.Y.[dM].[am]}$$$$V2.0), for which the values for the EC50 in assay [1] and in assay [2] were 1 to 10 µM and 0.011 to 0.1 µM, respectively.
For `CSCC[C@H](NC(=O)[C@@H]1CCCN1)C(=O)N[C@@H](CCCNC(=N)N)C(=O)N[C@@H](Cc1ccc(O)cc1)C(=O)N[C@@H](CCCCN)C(=O)N1CCC[C@H]1C(=O)N[C@H](CCSC)C(N)=O` [Peptide 62] (HELM PEPTIDE1{P.M.R.Y.K.P.[dM].[am]}$$$$V2.0), the EC50 in assay [1] is above 10 µM; in assay [2], below 0.01 µM.

B1: peptide of SEQ ID NO 69 (peptide)
peptide: KMKYKPM
HELM: PEPTIDE1{[CCCCCCCC(=O)[*:2]].K.M.K.Y.K.P.[dM].[am]}$$$$V2.0
SMILES: CCCCCCCC(=O)N[C@@H](CCCCN)C(=O)N[C@@H](CCSC)C(=O)N[C@@H](CCCCN)C(=O)N[C@@H](Cc1ccc(O)cc1)C(=O)N[C@@H](CCCCN)C(=O)N1CCC[C@H]1C(=O)N[C@H](CCSC)C(N)=O
Turning to B1, in assay [3], the “EC50 for [Ca2+]” value was above 10 µM.

B2: peptide of SEQ ID NO 73 (peptide)
peptide: MKYKPM
HELM: PEPTIDE1{[CCCCCCCC(=O)[*:2]].M.K.Y.K.P.[dM].[am]}$$$$V2.0
SMILES: CCCCCCCC(=O)N[C@@H](CCSC)C(=O)N[C@@H](CCCCN)C(=O)N[C@@H](Cc1ccc(O)cc1)C(=O)N[C@@H](CCCCN)C(=O)N1CCC[C@H]1C(=O)N[C@H](CCSC)C(N)=O
Consider B2, for which, in assay [3], the “EC50 for [Ca2+]” value was above 10 µM.

B3: peptide of SEQ ID NO 71 (peptide)
peptide: MKYKPM
HELM: PEPTIDE1{[ac].M.K.Y.K.P.[dM].[am]}$$$$V2.0
SMILES: CSCC[C@H](NC(C)=O)C(=O)N[C@@H](CCCCN)C(=O)N[C@@H](Cc1ccc(O)cc1)C(=O)N[C@@H](CCCCN)C(=O)N1CCC[C@H]1C(=O)N[C@H](CCSC)C(N)=O
Consider B3, for which the “EC50 for [Ca2+]” value in assay [3] is above 10 µM.

B4: peptide of SEQ ID NO 43 (peptide)
peptide: MRYKYM
HELM: PEPTIDE1{[CCCC(=O)[*:2]].M.R.Y.K.Y.[dM].[am]}$$$$V2.0
SMILES: CCCC(=O)N[C@@H](CCSC)C(=O)N[C@@H](CCCNC(=N)N)C(=O)N[C@@H](Cc1ccc(O)cc1)C(=O)N[C@@H](CCCCN)C(=O)N[C@@H](Cc1ccc(O)cc1)C(=O)N[C@H](CCSC)C(N)=O
On to B4, for which the “EC50 for [Ca2+]” value in assay [3] is above 10 µM.

B5: peptide of SEQ ID NO 49 (peptide)
peptide: MRYRYM
HELM: PEPTIDE1{[ac].M.R.Y.R.Y.[dM].[am]}$$$$V2.0
SMILES: CSCC[C@H](NC(C)=O)C(=O)N[C@@H](CCCNC(=N)N)C(=O)N[C@@H](Cc1ccc(O)cc1)C(=O)N[C@@H](CCCNC(=N)N)C(=O)N[C@@H](Cc1ccc(O)cc1)C(=O)N[C@H](CCSC)C(N)=O
Consider B5, for which the “EC50 for [Ca2+]” value in assay [3] was above 10 µM.

B6: peptide of SEQ ID NO 44 (peptide)
peptide: HMRYKYM
HELM: PEPTIDE1{H.M.R.Y.K.Y.[dM].[am]}$$$$V2.0; N-terminus assumed
SMILES: CSCC[C@H](NC(=O)[C@@H](N)Cc1c[nH]cn1)C(=O)N[C@@H](CCCNC(=N)N)C(=O)N[C@@H](Cc1ccc(O)cc1)C(=O)N[C@@H](CCCCN)C(=O)N[C@@H](Cc1ccc(O)cc1)C(=O)N[C@H](CCSC)C(N)=O
As to B6, the “EC50 for [Ca2+]” value in assay [3] was above 10 µM.

B7: peptide of SEQ ID NO 48 (peptide)
peptide: RWRYRYM
HELM: PEPTIDE1{R.W.R.Y.R.Y.[dM].[am]}$$$$V2.0; N-terminus assumed
SMILES: CSCC[C@@H](NC(=O)[C@H](Cc1ccc(O)cc1)NC(=O)[C@H](CCCNC(=N)N)NC(=O)[C@H](Cc1ccc(O)cc1)NC(=O)[C@H](CCCNC(=N)N)NC(=O)[C@H](Cc1c[nH]c2ccccc12)NC(=O)[C@@H](N)CCCNC(=N)N)C(N)=O
In the case of B7, the “EC50 for [Ca2+]” value in assay [3] is above 10 µM.

B8: peptide of SEQ ID NO 72 (peptide)
peptide: MKYKPM
HELM: PEPTIDE1{[CCCC(=O)[*:2]].M.K.Y.K.P.[dM].[am]}$$$$V2.0
SMILES: CCCC(=O)N[C@@H](CCSC)C(=O)N[C@@H](CCCCN)C(=O)N[C@@H](Cc1ccc(O)cc1)C(=O)N[C@@H](CCCCN)C(=O)N1CCC[C@H]1C(=O)N[C@H](CCSC)C(N)=O
With B8, the “EC50 for [Ca2+]” value in assay [3] is above 10 µM.

B9: peptide of SEQ ID NO 66 (peptide)
peptide: KMKYKPM
HELM: PEPTIDE1{K.M.K.Y.K.P.[dM].[am]}$$$$V2.0; N-terminus assumed
SMILES: CSCC[C@H](NC(=O)[C@@H](N)CCCCN)C(=O)N[C@@H](CCCCN)C(=O)N[C@@H](Cc1ccc(O)cc1)C(=O)N[C@@H](CCCCN)C(=O)N1CCC[C@H]1C(=O)N[C@H](CCSC)C(N)=O
As to B9, the “EC50 for [Ca2+]” value in assay [3] is above 10 µM.

By EC50 is commonly meant the concentration at which the effect is half-maximal.

Source of the values: patent US20250361268A1, “NOVEL ANTI-INFLAMMATORY PEPTIDE AND USE THEREOF” (NOVACELL TECHNOLOGY INC., priority 2022, published 2025).
